Results: patent US9309236B2, “PI-kinase inhibitors with broad spectrum anti-infective activity” (The Board of Trustees of the Leland Stanford Junior …, priority 2011, dated 2016)

Columns and labels:
p110γ = p110γ (Homo sapiens, UniProt P48736); assay: PI3-kinase p110γ lipid kinase assay; format: biochemical; settings: read-out: IC50 PI3K 110g
Description: In the assays described here, p110α-p85 complex and p110γ were acquired from Millipore. Assays were performed with La-phosphatidylinositol (Avanti) as described in Knight et al. Nat. Protoc. […] Inhibitor series were prepared 10% DMSO as 5× stocks for the assay. […] COS-7 cells were cultured in 10 cm dishes and transfected at 70% confluence with 10 μg of plasmid DNA (HA-tagged bovine PI4KIIIβ, HA-tagged human PI4KIIIα) using Lipofectamine 2000 and 5 ml Opti-MEM following the manufacturer's instructions. After 5 hours the transfection medium was replaced with 10 ml complete DMEM. 36 hrs post transfection, cells were washed once with 5 ml PBS (pH 7.4) and lysed in 1 ml of lysis buffer (1) on ice. […] To the lysates was added 200 μl of protein G Sepharose 4 fast flow beads that were prewashed with PBS and lysis buffer and 2 μg of anti-HA antibody. The tubes were then incubated overnight at 4 degrees C. in a tube rotator. […] Kinase reactions were run in a mixture of 45 μL of PI buffer (1 mM PI in kinase buffer), 10 μL of immunoprecipitated beads, 2 μL of inhibitors (dissolved and diluted in DMSO) or DMSO and 5 μL of [γ-^32P]-ATP (1 mM and 2 μCi/tube). The immunoprecipitates in PI buffer were pre-incubated with the drugs for 20 min prior the initiation of kinase reaction by adding ATP and the reactions were carried out for 30 min in 15 ml polypropolyne tubes. Reactions were terminated by addition of 3 ml of CHCl3:CH3OH:HCl (200:100:0.75) followed by 0.6 ml of 0.6N HCl to induce phase separation. The mixtures were vortexed, centrifuged at 2000 rpm for 2 min and the upper phase was discarded. To the lower phase was added 1.5 ml of CHCl3:CH3OH:0.6N HCl (3:48:47) and the mixture vortexed and centrifuged at 2000 rpm for 2 min. The lower phase was then transferred to counting vials and evaporated. Samples were counted in a scintillation beta counter after adding 5 ml of Instafluor (Perkin-Elmer).
(§1) Compounds are tested in C.1.1. PI kinase assays as described by Shokat et al., “A membrane capture assay for lipid kinase activity.” Nat. Protoc.

PI3K C2a = PI3K C2a (Homo sapiens, UniProt O00443); assay: PI3-kinase C2α (type II PI3-kinase alpha) kinase assay; format: biochemical
Sequence of PI3K C2a (O00443 whole entry): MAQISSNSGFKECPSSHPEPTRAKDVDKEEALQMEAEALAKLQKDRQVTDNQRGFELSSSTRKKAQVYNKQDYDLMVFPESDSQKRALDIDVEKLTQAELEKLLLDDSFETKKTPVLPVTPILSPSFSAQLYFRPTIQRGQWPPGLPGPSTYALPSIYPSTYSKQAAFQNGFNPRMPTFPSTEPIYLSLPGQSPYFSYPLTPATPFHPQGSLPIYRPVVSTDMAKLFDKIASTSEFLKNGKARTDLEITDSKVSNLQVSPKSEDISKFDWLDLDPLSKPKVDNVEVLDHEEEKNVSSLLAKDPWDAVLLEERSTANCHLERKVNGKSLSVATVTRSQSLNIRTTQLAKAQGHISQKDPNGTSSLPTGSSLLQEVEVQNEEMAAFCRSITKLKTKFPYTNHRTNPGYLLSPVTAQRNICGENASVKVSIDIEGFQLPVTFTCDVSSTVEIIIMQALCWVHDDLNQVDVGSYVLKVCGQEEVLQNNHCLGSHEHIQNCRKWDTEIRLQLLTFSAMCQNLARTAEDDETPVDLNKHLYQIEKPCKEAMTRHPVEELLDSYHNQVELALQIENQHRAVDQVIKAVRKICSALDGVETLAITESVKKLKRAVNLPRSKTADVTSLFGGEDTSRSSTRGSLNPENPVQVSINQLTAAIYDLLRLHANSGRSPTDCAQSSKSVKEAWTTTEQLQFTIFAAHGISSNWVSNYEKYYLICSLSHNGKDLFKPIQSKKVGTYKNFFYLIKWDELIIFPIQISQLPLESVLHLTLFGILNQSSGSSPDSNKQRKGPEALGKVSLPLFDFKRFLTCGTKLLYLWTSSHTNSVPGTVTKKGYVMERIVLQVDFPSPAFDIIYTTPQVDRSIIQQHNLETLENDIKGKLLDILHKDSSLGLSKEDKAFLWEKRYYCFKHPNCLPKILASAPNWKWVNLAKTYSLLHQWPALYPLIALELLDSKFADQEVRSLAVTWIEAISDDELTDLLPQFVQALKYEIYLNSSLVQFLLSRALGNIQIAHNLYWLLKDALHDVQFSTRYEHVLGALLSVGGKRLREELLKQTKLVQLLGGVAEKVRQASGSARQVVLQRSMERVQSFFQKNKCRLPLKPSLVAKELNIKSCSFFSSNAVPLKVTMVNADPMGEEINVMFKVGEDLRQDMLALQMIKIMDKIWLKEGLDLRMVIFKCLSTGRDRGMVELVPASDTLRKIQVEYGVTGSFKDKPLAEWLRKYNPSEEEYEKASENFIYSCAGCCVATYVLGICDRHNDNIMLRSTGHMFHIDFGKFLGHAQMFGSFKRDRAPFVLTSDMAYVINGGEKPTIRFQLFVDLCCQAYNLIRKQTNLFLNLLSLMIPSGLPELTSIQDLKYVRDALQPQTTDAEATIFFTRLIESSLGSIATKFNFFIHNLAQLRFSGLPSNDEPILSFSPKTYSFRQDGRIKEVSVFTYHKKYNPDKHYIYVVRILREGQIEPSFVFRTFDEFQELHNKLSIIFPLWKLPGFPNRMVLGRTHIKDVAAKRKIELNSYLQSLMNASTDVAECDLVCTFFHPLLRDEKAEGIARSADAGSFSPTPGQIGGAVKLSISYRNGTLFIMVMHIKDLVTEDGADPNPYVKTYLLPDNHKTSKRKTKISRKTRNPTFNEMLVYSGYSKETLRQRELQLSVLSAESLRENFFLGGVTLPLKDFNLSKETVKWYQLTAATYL
Description: as §1

[1] = molecular target: HA-tagged bovine PI4KIIIβ (Bos taurus, UniProt O02810); assay: PI4KIIIβ immunoprecipitate kinase assay with [γ-32P]-ATP; format: biochemical; settings: in vitro enzyme assays; read-out: IC50 PI4KIIIβ
Sequence of HA-tagged bovine PI4KIIIβ (O02810 whole entry): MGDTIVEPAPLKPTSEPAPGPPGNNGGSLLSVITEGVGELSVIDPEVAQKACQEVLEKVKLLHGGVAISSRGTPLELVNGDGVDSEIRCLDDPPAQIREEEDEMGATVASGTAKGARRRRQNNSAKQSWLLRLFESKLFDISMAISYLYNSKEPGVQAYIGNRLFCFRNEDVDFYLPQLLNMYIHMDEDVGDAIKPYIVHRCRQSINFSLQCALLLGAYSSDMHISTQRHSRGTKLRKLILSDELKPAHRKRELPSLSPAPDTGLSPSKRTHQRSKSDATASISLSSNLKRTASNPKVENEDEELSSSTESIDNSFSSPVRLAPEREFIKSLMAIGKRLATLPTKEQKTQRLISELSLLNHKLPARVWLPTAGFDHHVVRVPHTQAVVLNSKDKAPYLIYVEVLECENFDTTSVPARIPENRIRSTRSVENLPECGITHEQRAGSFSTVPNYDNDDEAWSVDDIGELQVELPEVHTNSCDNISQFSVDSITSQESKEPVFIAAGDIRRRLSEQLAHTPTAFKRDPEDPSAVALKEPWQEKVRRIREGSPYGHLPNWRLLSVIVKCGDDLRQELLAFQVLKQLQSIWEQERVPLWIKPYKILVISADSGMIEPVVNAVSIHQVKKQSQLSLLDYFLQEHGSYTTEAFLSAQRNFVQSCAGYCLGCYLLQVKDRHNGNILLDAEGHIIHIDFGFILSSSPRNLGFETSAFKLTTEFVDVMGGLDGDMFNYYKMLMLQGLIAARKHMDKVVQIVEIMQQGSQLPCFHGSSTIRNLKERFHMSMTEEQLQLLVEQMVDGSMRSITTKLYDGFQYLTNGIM
Description: In the assays described here, p110α-p85 complex and p110γ were acquired from Millipore. Assays were performed with La-phosphatidylinositol (Avanti) as described in Knight et al. Nat. […] Inhibitor series were prepared 10% DMSO as 5× stocks for the assay. […] COS-7 cells were cultured in 10 cm dishes and transfected at 70% confluence with 10 μg of plasmid DNA (HA-tagged bovine PI4KIIIβ, HA-tagged human PI4KIIIα) using Lipofectamine 2000 and 5 ml Opti-MEM following the manufacturer's instructions. After 5 hours the transfection medium was replaced with 10 ml complete DMEM. 36 hrs post transfection, cells were washed once with 5 ml PBS (pH 7.4) and lysed in 1 ml of lysis buffer (1) on ice. Lysates were collected by scraping and after 15 min they were centrifuged at 13,000 rpm for 10 min. To the lysates was added 200 μl of protein G Sepharose 4 fast flow beads that were prewashed with PBS and lysis buffer and 2 μg of anti-HA antibody. The tubes were then incubated overnight at 4 degrees C. in a tube rotator. […] Kinase reactions were run in a mixture of 45 μL of PI buffer (1 mM PI in kinase buffer), 10 μL of immunoprecipitated beads, 2 μL of inhibitors (dissolved and diluted in DMSO) or DMSO and 5 μL of [γ-^32P]-ATP (1 mM and 2 μCi/tube). The immunoprecipitates in PI buffer were pre-incubated with the drugs for 20 min prior the initiation of kinase reaction by adding ATP and the reactions were carried out for 30 min in 15 ml polypropolyne tubes. Reactions were terminated by addition of 3 ml of CHCl3:CH3OH:HCl (200:100:0.75) followed by 0.6 ml of 0.6N HCl to induce phase separation. The mixtures were vortexed, centrifuged at 2000 rpm for 2 min and the upper phase was discarded. To the lower phase was added 1.5 ml of CHCl3:CH3OH:0.6N HCl (3:48:47) and the mixture vortexed and centrifuged at 2000 rpm for 2 min. The lower phase was then transferred to counting vials and evaporated. Samples were counted in a scintillation beta counter after adding 5 ml of Instafluor (Perkin-Elmer).

human rhinovirus 14 = assay: Rhinovirus assay: protection of HeLa S3 cells from cytopathic effect; format: cell-based; settings: Rhinovirus B, HRV14
Plasmodium falciparum = Plasmodium falciparum assay, erythrocyte-fed culture of ring forms; format: cell-based; settings: read-out: EC50 P. falcip.
Description: Plasmodium falciparum assays are performed using an erythrocyte-fed culture of P. falciparum ring forms, using similar methods to those described by Deu et al. “Functional Studies of Plasmodium falciparum Dipeptidyl Aminopeptidase I Using Small Molecule Inhibitors and Active Site Probes.” Chemistry & Biology 17, 808-819.

[2] = Cytotoxicity CC50 in Huh7.5 cells; format: cell-based; settings: human, Huh7.5 cells
Description: For all of the assays described above, EC50, EC90, and CC50 values are determined, and experiments are performed starting drug treatments at various times post initiation of infection to help localize the most sensitive aspects of each pathogen's life cycle to PI 4-kinase inhibition.

Sequence of p110γ (P48736 whole entry, species assumed): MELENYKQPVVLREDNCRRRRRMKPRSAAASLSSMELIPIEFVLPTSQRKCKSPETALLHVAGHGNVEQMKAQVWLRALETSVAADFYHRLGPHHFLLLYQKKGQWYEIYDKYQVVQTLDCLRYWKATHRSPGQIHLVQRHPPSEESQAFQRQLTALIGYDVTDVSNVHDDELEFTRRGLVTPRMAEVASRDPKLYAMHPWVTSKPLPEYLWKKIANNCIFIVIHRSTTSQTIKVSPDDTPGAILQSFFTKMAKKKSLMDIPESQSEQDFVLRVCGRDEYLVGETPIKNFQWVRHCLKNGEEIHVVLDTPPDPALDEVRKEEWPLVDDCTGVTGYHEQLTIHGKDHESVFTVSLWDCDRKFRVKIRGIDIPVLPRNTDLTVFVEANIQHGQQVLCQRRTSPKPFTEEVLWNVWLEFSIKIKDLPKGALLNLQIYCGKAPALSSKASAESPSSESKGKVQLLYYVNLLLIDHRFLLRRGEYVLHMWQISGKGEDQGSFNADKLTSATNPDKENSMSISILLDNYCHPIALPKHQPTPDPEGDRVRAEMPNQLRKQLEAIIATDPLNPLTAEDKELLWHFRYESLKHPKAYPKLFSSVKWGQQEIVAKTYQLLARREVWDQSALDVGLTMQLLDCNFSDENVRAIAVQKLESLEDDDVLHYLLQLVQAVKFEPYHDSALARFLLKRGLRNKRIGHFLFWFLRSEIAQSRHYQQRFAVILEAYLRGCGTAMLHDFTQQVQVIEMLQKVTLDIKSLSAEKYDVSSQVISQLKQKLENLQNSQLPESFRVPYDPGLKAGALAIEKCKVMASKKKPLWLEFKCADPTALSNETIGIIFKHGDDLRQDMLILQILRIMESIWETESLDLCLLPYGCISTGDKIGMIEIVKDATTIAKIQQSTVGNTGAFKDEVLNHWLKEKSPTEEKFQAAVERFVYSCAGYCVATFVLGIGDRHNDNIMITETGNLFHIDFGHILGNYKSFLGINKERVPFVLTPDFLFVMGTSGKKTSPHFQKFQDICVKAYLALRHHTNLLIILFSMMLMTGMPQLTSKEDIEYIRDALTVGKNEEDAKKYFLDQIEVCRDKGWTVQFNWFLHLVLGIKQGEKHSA

COc1ccc(-c2sc(NC(=O)C3CCCC3)nc2C)cc1S(=O)(=O)Nc1ccc(O)cc1 [PT423]
IC50 (p110γ): 64 nM | IC50 (PI3K C2a): > 10000 nM | IC50 [1]: 7 nM | EC50 (human rhinovirus 14): 0.32 nM | EC50 (Plasmodium falciparum): 3.2 nM | CC50 [2]: > 20000 nM
